The values below come from patent publication US7018648B2, “Transdermal device for administering testosterone or one of the derivatives thereof” (Pierre Fabre Medicament, priority 1999, dated 2006).

A short description of data set [1]: Ex vivo permeation on animal skin after pretreatment with promoter compound (permeation index vs blank reference product). Format: in vitro ADME. Particulars: for Permeation index: ratio of cumulative amount of testosterone at 24 hours after skin pretreatment with the compound relative to blank, 1 = no promoting effect. An excerpt: FIG. 1 represents the permeation indices (PIs), also known as the “enhancement factors” for comparing in vitro the promoting effect of different products.
This is the product sold by the company Alza under the brand name Testoderm CIII®. This matrix transdermal device for scrotal application is free of promoters and, consequently, is more particularly suitable for performing in vitro protocols intended to select the best permeation promoters of this active principle.
As regards the second category of products, it is more particularly advantageous to check their permeation-promoting effect with respect to the active principle according to the invention. Ex vivo studies of permeation on animal skin are carried out using a reference product whose kinetics constitute a “blank”, and then after initial pretreatment of the skin with the promoter compound. The ratio of the cumulative amount at 24 hours of the test relative to the “blank” gives the permeation index “PI” factor or “enhancement factor”. A permeation index of close to 1 means that the test product has no promoting effect for the active principle under consideration and under the operating conditions used. A classification is then possible according to the indications of table II below.

Data set [2] in a line: Solubility at saturation of testosterone in solvents/excipients. Format: physicochemical. As to the method:
Studies for selecting the components of the adhesive matrix other than the actual adhesive are useful and involve solubility and in vitro permeation tests. To evaluate the solubilizing power of different components, solubility studies at saturation are performed.

For Sorbitan laurate, the Permeation index in data set [1] is on record as 11.70.
Consider `C[C@]12CCC(=O)C=C1CC[C@@H]1[C@@H]2CC[C@]2(C)C(O)CC[C@@H]12` (some centres unmarked) [testosterone, 17-hydroxyandrost-4-en-3-one], for which the “Solubility at saturation of testosterone” value in data set [2] (in Cyclohexane) is 0.06 % m/m; in data set [2] (in Ethanol), 22.12 % m/m; in data set [2] (in Ethyl acetate), 4.45 % m/m; in data set [2] (in Isopropanol) it was 12.80 % m/m; in data set [2] (in Laurylpyrrolidone) it was 15.90 % m/m; in data set [2] (in Lysophosphatidylcholine), 6.96 % m/m. For the same molecule, the “Solubility at saturation of testosterone” value stood at 1.43 % m/m in data set [2] (in Methyl laurate), 2.62 % m/m in data set [2] (in Polysorbate 80), 4.12 % m/m in data set [2] (in Sorbitan laurate) and 27.01 % m/m in data set [2] (in Tetrahydrofuran).
In the case of Lysophosphatidylchloline, the Permeation index in data set [1] turned out to be 9.18.
The same measure, in the same setting: the value for `CCCCCCCCCCCCN1CCCC1=O` [Laurylpyrrolidone] was 11.27.
Turning to `CCN(CC)C(=O)c1cccc(C)c1` [DEET, N,N-diethyl-m-toluamide], in data set [1] (in words), the testosterone permeation-promoting effect entry is recorded as “lacks any testosterone-promoting effect”.
